Source: the NIST ThermoML archive (doi:10.1021/je200195q)
Numbers after ± are expanded uncertainties.

Experiment: activity coefficient (dimensionless); of the first substance listed, at infinite dilution; xn = mol fraction of the nth substance listed
Details: 101 kPa, Liquid, Chromatography, x1 = 0

ClC(Cl)Cl [trichloromethane] + CCCCn1cc[n+](C)c1.O=S(=O)([N-]S(=O)(=O)C(F)(F)C(F)(F)F)C(F)(F)C(F)(F)F
activity coefficient (322.55 K): 0.613 ± 0.043
activity coefficient (342.75 K): 0.74 ± 0.049
activity coefficient (362.65 K): 0.79 ± 0.051

CCN(CC)CC [triethylamine] + CCCCn1cc[n+](C)c1.O=S(=O)([N-]S(=O)(=O)C(F)(F)C(F)(F)F)C(F)(F)C(F)(F)F
activity coefficient (322.55 K): 2.73 ± 0.19
activity coefficient (342.75 K): 3.61 ± 0.25
activity coefficient (362.65 K): 3.27 ± 0.22

CC1CCCCC1 [methylcyclohexane] + CCCCn1cc[n+](C)c1.O=S(=O)([N-]S(=O)(=O)C(F)(F)C(F)(F)F)C(F)(F)C(F)(F)F
activity coefficient (322.55 K): 9.09 ± 0.62
activity coefficient (342.75 K): 7.96 ± 0.54
activity coefficient (362.65 K): 7.07 ± 0.48

C#CCCCCC [1-heptyne] + CCCCCCCCCCn1cc[n+](CCCCCCCCCC)c1C.O=S(=O)([N-]S(=O)(=O)C(F)(F)F)C(F)(F)F
activity coefficient (323.1 K): 1.06 ± 0.067
activity coefficient (333.15 K): 1.06 ± 0.067
activity coefficient (343.15 K): 1.06 ± 0.067

CO [methanol] + CCn1cc[n+](C)c1.CS(=O)(=O)[O-]
activity coefficient (312.55 K): 0.249 ± 0.03
activity coefficient (322.45 K): 0.254 ± 0.03
activity coefficient (332.45 K): 0.264 ± 0.03

Cc1ccc(C)cc1 [1,4-dimethylbenzene] + CCCCCCCCCCn1cc[n+](CCCCCCCCCC)c1C.O=S(=O)([N-]S(=O)(=O)C(F)(F)F)C(F)(F)F
activity coefficient (323.1 K): 0.647 ± 0.044
activity coefficient (333.15 K): 0.66 ± 0.045
activity coefficient (343.15 K): 0.657 ± 0.045

CCCCCCCCC [nonane] + CCCCCC[n+]1ccn(C)c1.FC(F)(F)C(F)(F)[P-](F)(F)(F)(C(F)(F)C(F)(F)F)C(F)(F)C(F)(F)F
activity coefficient (312.8 K): 17.7 ± 1.2
activity coefficient (332.85 K): 15.5 ± 1.1
activity coefficient (354.65 K): 12.4 ± 0.85

C=CCCCC [hex-1-ene] + CCCCn1cc[n+](C)c1.O=S(=O)([N-]S(=O)(=O)C(F)(F)C(F)(F)F)C(F)(F)C(F)(F)F
activity coefficient (322.55 K): 6.07 ± 0.41
activity coefficient (342.75 K): 5.55 ± 0.38
activity coefficient (362.65 K): 5.24 ± 0.36

Cc1ccccc1C [1,2-dimethylbenzene] + CCCCCCCCCCn1cc[n+](CCCCCCCCCC)c1C.O=S(=O)([N-]S(=O)(=O)C(F)(F)F)C(F)(F)F
activity coefficient (323.1 K): 0.626 ± 0.043
activity coefficient (333.15 K): 0.616 ± 0.043
activity coefficient (343.15 K): 0.603 ± 0.042

CCCCCCCCCCCC [dodecane] + CCCCCC[n+]1ccn(C)c1.FC(F)(F)C(F)(F)[P-](F)(F)(F)(C(F)(F)C(F)(F)F)C(F)(F)C(F)(F)F
activity coefficient (312.8 K): 39.3 ± 2.7
activity coefficient (332.85 K): 33.1 ± 2.3
activity coefficient (354.65 K): 25.7 ± 1.8

CCC[N+](=O)[O-] [1-nitropropane] + CCCCCC[n+]1ccn(C)c1.FC(F)(F)C(F)(F)[P-](F)(F)(F)(C(F)(F)C(F)(F)F)C(F)(F)C(F)(F)F
activity coefficient (312.8 K): 0.452 ± 0.036
activity coefficient (332.85 K): 0.451 ± 0.036
activity coefficient (354.65 K): 0.436 ± 0.035

c1ccsc1 [thiophene] + CCCCCCCCCCn1cc[n+](CCCCCCCCCC)c1C.O=S(=O)([N-]S(=O)(=O)C(F)(F)F)C(F)(F)F
activity coefficient (323.1 K): 0.422 ± 0.035
activity coefficient (333.15 K): 0.423 ± 0.035
activity coefficient (343.15 K): 0.424 ± 0.035

Cc1cccc(C)c1 [1,3-dimethylbenzene] + CCCCCCCCCCn1cc[n+](CCCCCCCCCC)c1C.O=S(=O)([N-]S(=O)(=O)C(F)(F)F)C(F)(F)F
activity coefficient (323.1 K): 0.645 ± 0.044
activity coefficient (333.15 K): 0.653 ± 0.045
activity coefficient (343.15 K): 0.663 ± 0.045

CCOCC [diethyl ether] + CCn1cc[n+](C)c1.CS(=O)(=O)[O-]
activity coefficient (312.55 K): 21.8 ± 1.5
activity coefficient (322.45 K): 20.4 ± 1.4
activity coefficient (332.45 K): 18 ± 1.2

CCCO [propan-1-ol] + CCCCCCCCCCn1cc[n+](CCCCCCCCCC)c1C.O=S(=O)([N-]S(=O)(=O)C(F)(F)F)C(F)(F)F
activity coefficient (323.1 K): 1.31 ± 0.085
activity coefficient (333.15 K): 1.16 ± 0.074
activity coefficient (343.15 K): 1.06 ± 0.067

CCC(C)CC [3-methylpentane] + CCn1cc[n+](C)c1.CS(=O)(=O)[O-]
activity coefficient (312.55 K): 157 ± 11
activity coefficient (322.45 K): 135 ± 9.3
activity coefficient (332.45 K): 115 ± 7.9

c1ccsc1 [thiophene] + CCn1cc[n+](C)c1.CS(=O)(=O)[O-]
activity coefficient (312.55 K): 1.87 ± 0.13
activity coefficient (322.45 K): 1.91 ± 0.13
activity coefficient (332.45 K): 1.95 ± 0.13

CCCO [propan-1-ol] + CCn1cc[n+](C)c1.CS(=O)(=O)[O-]
activity coefficient (312.55 K): 0.742 ± 0.049
activity coefficient (322.45 K): 0.734 ± 0.049
activity coefficient (332.45 K): 0.722 ± 0.048

CCC(C)CC [3-methylpentane] + CCCCn1cc[n+](C)c1.O=S(=O)([N-]S(=O)(=O)C(F)(F)C(F)(F)F)C(F)(F)C(F)(F)F
activity coefficient (322.55 K): 8.23 ± 0.56
activity coefficient (342.75 K): 7.79 ± 0.53
activity coefficient (362.65 K): 7.62 ± 0.52

CCN(CC)CC [triethylamine] + CCCCCC[n+]1ccn(C)c1.FC(F)(F)C(F)(F)[P-](F)(F)(F)(C(F)(F)C(F)(F)F)C(F)(F)C(F)(F)F
activity coefficient (312.8 K): 2.09 ± 0.14
activity coefficient (332.85 K): 1.96 ± 0.13
activity coefficient (354.65 K): 1.76 ± 0.12

ClC(Cl)Cl [trichloromethane] + CCCCCC[n+]1ccn(C)c1.FC(F)(F)C(F)(F)[P-](F)(F)(F)(C(F)(F)C(F)(F)F)C(F)(F)C(F)(F)F
activity coefficient (312.8 K): 1.09 ± 0.069
activity coefficient (332.85 K): 1.09 ± 0.069
activity coefficient (354.65 K): 1.05 ± 0.066

C1CCCCC1 [cyclohexane] + CCCCn1cc[n+](C)c1.O=S(=O)([N-]S(=O)(=O)C(F)(F)C(F)(F)F)C(F)(F)C(F)(F)F
activity coefficient (322.55 K): 7 ± 0.48
activity coefficient (342.75 K): 6.12 ± 0.42
activity coefficient (362.65 K): 5.41 ± 0.37

C=O [methanal] + CCn1cc[n+](C)c1.CS(=O)(=O)[O-]
activity coefficient (312.55 K): 0.615 ± 0.043
activity coefficient (322.45 K): 0.656 ± 0.045
activity coefficient (332.45 K): 0.691 ± 0.046

c1ccncc1 [pyridine] + CCCCCCCCCCn1cc[n+](CCCCCCCCCC)c1C.O=S(=O)([N-]S(=O)(=O)C(F)(F)F)C(F)(F)F
activity coefficient (323.1 K): 0.328 ± 0.032
activity coefficient (333.15 K): 0.331 ± 0.032
activity coefficient (343.15 K): 0.334 ± 0.032

CO [methanol] + CCCCn1cc[n+](C)c1.O=S(=O)([N-]S(=O)(=O)C(F)(F)C(F)(F)F)C(F)(F)C(F)(F)F
activity coefficient (322.55 K): 1.23 ± 0.079
activity coefficient (342.75 K): 0.997 ± 0.062
activity coefficient (362.65 K): 0.942 ± 0.059

CCc1ccccc1 [ethylbenzene] + CCCCn1cc[n+](C)c1.O=S(=O)([N-]S(=O)(=O)C(F)(F)C(F)(F)F)C(F)(F)C(F)(F)F
activity coefficient (322.55 K): 2.04 ± 0.14
activity coefficient (342.75 K): 2.05 ± 0.14
activity coefficient (362.65 K): 2.06 ± 0.14

CCCCCCCCCC [decane] + CCCCCCCCCCn1cc[n+](CCCCCCCCCC)c1C.O=S(=O)([N-]S(=O)(=O)C(F)(F)F)C(F)(F)F
activity coefficient (323.1 K): 3.56 ± 0.24
activity coefficient (333.15 K): 3.46 ± 0.24
activity coefficient (343.15 K): 3.33 ± 0.23

CCCCCCCCCCCCCC [tetradecane] + CCn1cc[n+](C)c1.CS(=O)(=O)[O-]
activity coefficient (312.55 K): 4070 ± 280
activity coefficient (322.45 K): 4000 ± 280
activity coefficient (332.45 K): 3830 ± 260

CCCO [propan-1-ol] + CCCCCC[n+]1ccn(C)c1.FC(F)(F)C(F)(F)[P-](F)(F)(F)(C(F)(F)C(F)(F)F)C(F)(F)C(F)(F)F
activity coefficient (312.8 K): 2.47 ± 0.17
activity coefficient (332.85 K): 1.96 ± 0.13
activity coefficient (354.65 K): 1.47 ± 0.096

CC1CCCCC1 [methylcyclohexane] + CCCCCC[n+]1ccn(C)c1.FC(F)(F)C(F)(F)[P-](F)(F)(F)(C(F)(F)C(F)(F)F)C(F)(F)C(F)(F)F
activity coefficient (312.8 K): 5.89 ± 0.4
activity coefficient (332.85 K): 5.23 ± 0.36
activity coefficient (354.65 K): 4.49 ± 0.31

ClC(Cl)Cl [trichloromethane] + CCn1cc[n+](C)c1.CS(=O)(=O)[O-]
activity coefficient (312.55 K): 0.563 ± 0.04
activity coefficient (322.45 K): 0.479 ± 0.037
activity coefficient (332.45 K): 1.42 ± 0.093

ClC(Cl)(Cl)Cl [tetrachloromethane] + CCCCCCCCCCn1cc[n+](CCCCCCCCCC)c1C.O=S(=O)([N-]S(=O)(=O)C(F)(F)F)C(F)(F)F
activity coefficient (323.1 K): 0.776 ± 0.051
activity coefficient (333.15 K): 0.777 ± 0.051
activity coefficient (343.15 K): 0.777 ± 0.051

C#CCCCCC [1-heptyne] + CCCCCC[n+]1ccn(C)c1.FC(F)(F)C(F)(F)[P-](F)(F)(F)(C(F)(F)C(F)(F)F)C(F)(F)C(F)(F)F
activity coefficient (312.8 K): 2.54 ± 0.17
activity coefficient (332.85 K): 2.5 ± 0.17
activity coefficient (354.65 K): 2.32 ± 0.16

c1ccncc1 [pyridine] + CCCCn1cc[n+](C)c1.O=S(=O)([N-]S(=O)(=O)C(F)(F)C(F)(F)F)C(F)(F)C(F)(F)F
activity coefficient (322.55 K): 0.386 ± 0.033
activity coefficient (342.75 K): 0.429 ± 0.035
activity coefficient (362.65 K): 0.45 ± 0.036

Cc1ccccc1 [toluene] + CCCCCC[n+]1ccn(C)c1.FC(F)(F)C(F)(F)[P-](F)(F)(F)(C(F)(F)C(F)(F)F)C(F)(F)C(F)(F)F
activity coefficient (312.8 K): 0.674 ± 0.046
activity coefficient (332.85 K): 0.727 ± 0.048
activity coefficient (354.65 K): 0.753 ± 0.05

CC(C)CO [2-methyl-1-propanol] + CCCCn1cc[n+](C)c1.O=S(=O)([N-]S(=O)(=O)C(F)(F)C(F)(F)F)C(F)(F)C(F)(F)F
activity coefficient (322.55 K): 2.26 ± 0.15
activity coefficient (342.75 K): 1.84 ± 0.12
activity coefficient (362.65 K): 1.57 ± 0.1

CCCCCCCCCCCCCC [tetradecane] + CCCCn1cc[n+](C)c1.O=S(=O)([N-]S(=O)(=O)C(F)(F)C(F)(F)F)C(F)(F)C(F)(F)F
activity coefficient (322.55 K): 153 ± 11
activity coefficient (342.75 K): 113 ± 7.7
activity coefficient (362.65 K): 91.5 ± 6.3

CCc1ccccc1 [ethylbenzene] + CCCCCC[n+]1ccn(C)c1.FC(F)(F)C(F)(F)[P-](F)(F)(F)(C(F)(F)C(F)(F)F)C(F)(F)C(F)(F)F
activity coefficient (312.8 K): 0.956 ± 0.06
activity coefficient (332.85 K): 1.03 ± 0.065
activity coefficient (354.65 K): 1.04 ± 0.066

CCO [ethanol] + CCCCCC[n+]1ccn(C)c1.FC(F)(F)C(F)(F)[P-](F)(F)(F)(C(F)(F)C(F)(F)F)C(F)(F)C(F)(F)F
activity coefficient (312.8 K): 2.1 ± 0.14
activity coefficient (332.85 K): 1.69 ± 0.11
activity coefficient (354.65 K): 1.31 ± 0.085

OCC(F)(F)F [2,2,2-trifluoroethanol] + CCCCCC[n+]1ccn(C)c1.FC(F)(F)C(F)(F)[P-](F)(F)(F)(C(F)(F)C(F)(F)F)C(F)(F)C(F)(F)F
activity coefficient (312.8 K): 0.987 ± 0.062
activity coefficient (332.85 K): 0.891 ± 0.057
activity coefficient (354.65 K): 0.728 ± 0.048

CCc1ccccc1 [ethylbenzene] + CCCCCCCCCCn1cc[n+](CCCCCCCCCC)c1C.O=S(=O)([N-]S(=O)(=O)C(F)(F)F)C(F)(F)F
activity coefficient (323.1 K): 0.652 ± 0.045
activity coefficient (333.15 K): 0.662 ± 0.045
activity coefficient (343.15 K): 0.689 ± 0.046
